Laboratory results from patent US20240228446A1, “PREPARATION METHOD FOR BICYCLIC COMPOUND AND APPLICATION AS ANTIFUNGAL AGENT” (priority 2021, published 2024).
Converted amounts (≈) assume the structure as drawn.

Test system: Candida albicans ATCC MYA-2876
Experiment: Minimal inhibitory concentration (MIC) test on fungal growth (CLSI M27, yeasts)
Format: cell-based
Settings: Candida albicans; lowest concentration inhibiting growth of yeast by 50%; 35° C., 24 hours; RPMI1640; read-out: MIC Candida albicans ATCC MYA-2876
Procedure: • RPMI1640 medium: Brand: Gibco, article number: 31800-014 • Sabouraud dextrose agar (SDA): Brand: Hope Bio, article number: HB0253-81 • Voriconazole: Brand: Adamas, article number: 22105A • Amphotericin B: Brand: AbCam, article number: ab141199
MIC test was conducted in accordance with the guidelines and requirements of CLSI M27 (for yeasts) and M38 (for Aspergillus).
Strain preparation: The strains were inoculated 1 day in advance by streaking on SDA plates with glycerol strains stored at −80° C. The strains were cultured at 35° C. and 40 to 60% humidity for 18 to 24 hours. Streak inoculation of Aspergillus fumigatus and Cryptococcus neoformans was required to be done 3 days and 2 days in advance, respectively.
Preparation of culture medium and compounds: The liquid culture medium RPMI was prepared with pure water, and 0.165 mol/L MOPS was added to adjust the pH to 7.0. The mixture was filtered with a 0.22 μm-membrane filter, sterilized, and stored at 4° C. (no more than 3 months). 0.85% physiological saline was sterilized at 121° C. for 30 min and then stored at room temperature (no more than 1 week). The compounds were dissolved in DMSO to 12.8 mg/mL and stored at −20° C.
For yeast, 3 to 5 colonies were selected from the SDA plate on the day of testing and fully suspended in 5 mL of sterilized 0.85% physiological saline. The turbidity of the bacterial suspension was measured with a turbidimeter, and the turbidity was adjusted to approximately 0.2. The bacterial suspension was 50-fold and 20-fold (1000-fold in total) diluted in RPMI1640 medium, respectively, to serve as the inoculum. The final inoculum concentration was 500 to 2500 CFU/mL.
The compound was diluted to the highest 800 μg/mL (or 400 μg/mL) with DMSO, and a 10-step 2-fold gradient dilution was performed, resulting in 11 concentrations. 2 μL of the gradient-diluted compound was transferred to the corresponding wells of a 96-well plate, and then 198 μL of the inoculum was transferred to the test plate. The plate was incubated at 35° C. for 24 hours (Aspergillus fumigatus and Cryptococcus neoformans were incubated for 48 and 72 hours, respectively).
After the incubation, the growth of the fungi was visually observed. The lowest concentration of the compound that inhibited the growth of yeast by 50% (inhibited Aspergillus by 100%) was defined as the minimum inhibitory concentration (MIC, μg/mL). A magnifying glass or reading at OD530 nm could be used to assist in determining the MIC. Photos were taken of the test plates for record keeping.

Row | SMILES | MIC [µg/mL]
1 | O[C@H](CNc1ccc(C23CC(C(F)(F)[C@](O)(Cn4cnnn4)c4ccc(F)cc4F)(C2)C3)cn1)C(F)(F)F (relative stereo) [Compound 99A] | 0.016 (≈ 0.0293 µM)
2 | O[C@@H](CNc1ccc(C23CC(C(F)(F)[C@](O)(Cn4cnnn4)c4ccc(F)cc4F)(C2)C3)cn1)C(F)(F)F (relative stereo) [Compound 99B] | 0.03 (≈ 0.0549 µM)
3 | O[C@H](COc1ccc(C23CC(C(F)(F)[C@](O)(Cn4cnnn4)c4cc(F)ccc4F)(C2)C3)cc1)C(F)(F)F (relative stereo) [Compound 165A] | 0.016 (≈ 0.0293 µM)
4 | O[C@](Cn1cncn1)(c1ccc(F)cc1F)C(F)(F)C12CC(C1)C2 (single isomer, unassigned) [Compound 10B] | 1 (≈ 2.93 µM)
5 | C[C@@](F)(C12CC(c3ccc(OCC(F)(F)F)cc3)(C1)C2)[C@](O)(Cn1cnnn1)c1ccc(F)cc1F (single isomer, unassigned) [Compound 18A] | 0.0078 (≈ 0.0152 µM)
6 | CNC(=O)COc1ccc(C23CC(C(F)(F)[C@@](O)(Cn4cncn4)c4ccc(F)cc4F)(C2)C3)cc1 (single isomer, unassigned) [Compound 35B] | 0.125 (≈ 0.248 µM)
7 | COc1ccc(C23CC(C(F)(F)[C@@](O)(Cn4cnnn4)c4ccc(F)cc4F)(C2)C3)cc1 (stereo in doubt) [Compound 1B] | 0.5 (≈ 1.12 µM)
8 | O[C@](Cn1cncn1)(c1ccc(F)cc1F)C(F)(F)C12CC(c3ccc(OCC(F)(F)F)cc3)(C1)C2 (stereo in doubt) [Compound 2B] | 0.25 (≈ 0.485 µM)
9 | N[C@@](Cn1cnnn1)(c1ccc(F)cc1F)C(F)(F)C12CC(c3ccc(OCC(F)(F)F)cc3)(C1)C2 (stereo in doubt) [Compound 4A] | 0.06 (≈ 0.116 µM)
10 | N#Cc1ccc(C23CC(C[C@](O)(Cn4cncn4)c4ccc(F)cc4F)(C2)C3)cc1 (stereo in doubt) [Compound 91A] | ≤ 0.0039
11 | O[C@@](Cn1cnnn1)(c1ccc(F)cc1F)C(F)(F)C12CC(c3cnc(OCC(F)(F)F)cn3)(C1)C2 (stereo in doubt) [Compound 107A] | 0.016 (≈ 0.0309 µM)
12 | O[C@@](Cn1ncnn1)(c1ccc(F)cc1F)C(F)(F)C12CC(c3cnc(OCC(F)(F)F)nc3)(C1)C2 (stereo in doubt) [Compound 110A] | 0.016 (≈ 0.0309 µM)
13 | OC1(COc2ccc(C34CC(C(F)(F)[C@](O)(Cn5cnnn5)c5ccc(F)cc5F)(C3)C4)cc2)COC1 (stereo in doubt) [Compound 150A] | 0.016 (≈ 0.0307 µM)
14 | O[C@](Cn1cnnn1)(c1ccc(F)cc1F)C(F)(F)C12CC(c3ccc(OCC(F)(F)F)cc3)(C1)C2 [Compound 3B] | 1 (≈ 1.94 µM)
15 | OC(Cn1cncn1)(c1ccc(Cl)cc1F)C(F)(F)C12CC(c3ccc(OCC(F)(F)F)cc3)(C1)C2 (stereo not shown) [Compound 5] | 0.016 (≈ 0.0301 µM)
16 | O[C@](Cn1cnnn1)(c1ccc(F)cc1F)C(F)(F)C12CC(C1)C2 [Compound 6B] | 2 (≈ 5.84 µM)
17 | OC(Cn1cnnn1)(c1ccc(F)cc1F)C(F)(F)C12CC(C1)C2 (stereo not shown) [Compound 6] | 0.13 (≈ 0.38 µM)
18 | OC(Cn1cnnn1)(c1ccc(Cl)cc1F)C(F)(F)C12CC(c3ccc(OCC(F)(F)F)cc3)(C1)C2 (stereo not shown) [Compound 7] | 0.016 (≈ 0.03 µM)
19 | N#Cc1ccc(C23CC(C(F)(F)C(O)(Cn4cnnn4)c4ccc(F)cc4F)(C2)C3)cc1 (stereo not shown) [Compound 8] | 0.5 (≈ 1.13 µM)
20 | OC(Cn1cnnn1)(c1cc(F)ccc1F)C(F)(F)C12CC(c3ccc(OCC(F)(F)F)cc3)(C1)C2 (stereo not shown) [Compound 9] | 0.03 (≈ 0.0581 µM)
21 | OC(Cn1cncn1)(c1ccc(F)cc1F)C(F)(F)C12CC(C1)C2 (stereo not shown) [Compound 10] | ≤ 0.0039
22 | OC(Cn1cnnn1)(c1ccc(F)cc1F)C(F)(F)C12CC(I)(C1)C2 (stereo not shown) [Compound 11] | 0.03 (≈ 0.0641 µM)
23 | CC12CC(C(F)(F)C(O)(Cn3cnnn3)c3ccc(F)cc3F)(C1)C2 (stereo not shown) [Compound 14] | 0.03 (≈ 0.0842 µM)
24 | COc1ccc(C23CC(C(C)(F)C(O)(Cn4cnnn4)c4ccc(F)cc4F)(C2)C3)cc1 (stereo not shown) [Compound 17] | 0.125 (≈ 0.281 µM)

Row | SMILES | MIC [µg/mL]
25 | C[C@](F)(C12CC(c3ccc(OCC(F)(F)F)cc3)(C1)C2)[C@@](O)(Cn1cnnn1)c1ccc(F)cc1F [Compound 18B] | 2 (≈ 3.9 µM)
26 | CC(F)(C12CC(c3ccc(OCC(F)(F)F)cc3)(C1)C2)C(O)(Cn1cnnn1)c1ccc(F)cc1F (stereo not shown) [Compound 18] | 0.016 (≈ 0.0312 µM)
27 | N#Cc1ccc(COc2ccc(C#CC34CC(C(F)(F)C(O)(Cn5cnnn5)c5ccc(F)cc5F)(C3)C4)cc2)cc1 (stereo not shown) [Compound 19] | 0.016 (≈ 0.0279 µM)
28 | Oc1ccc(C23CC(C(F)(F)C(O)(Cn4cnnn4)c4ccc(F)cc4F)(C2)C3)cc1 (stereo not shown) [Compound 20] | 0.13 (≈ 0.299 µM)
29 | Oc1ccc(C23CC(C(F)(F)[C@@](O)(Cn4cncn4)c4ccc(F)cc4F)(C2)C3)cc1 [Compound 21B] | 1 (≈ 2.31 µM)
30 | OC(Cn1cnnn1)(c1ccc(F)cc1F)C(F)(F)C12CC(c3ccc(OC(F)(F)F)cc3)(C1)C2 (stereo not shown) [Compound 24] | 0.03 (≈ 0.0597 µM)
31 | OC(Cn1cnnn1)(c1ccc(F)cc1F)C(F)(F)C12CC(c3ccc(OC(F)F)cc3)(C1)C2 (stereo not shown) [Compound 26] | 0.016 (≈ 0.033 µM)
32 | N#Cc1ccc(C23CC(C(F)(F)[C@@](Cn4cncn4)(OP(=O)(O)O)c4ccc(F)cc4F)(C2)C3)cc1 [Compound 27A-P1] | 2 (≈ 3.83 µM)
33 | N#Cc1ccc(C23CC(C(F)(F)[C@@](Cn4cncn4)(OCOP(=O)(O)O)c4ccc(F)cc4F)(C2)C3)cc1 [Compound 27A-P2] | 0.5 (≈ 0.905 µM)
34 | N#Cc1ccc(C23CC(C(F)(F)[C@@](O)(Cn4cncn4)c4ccc(F)cc4F)(C2)C3)cc1 [Compound 27B] | 0.06 (≈ 0.136 µM)
35 | N#Cc1ccc(C23CC(C(F)(F)[C@](O)(Cn4cnnn4)c4cc(F)ccc4F)(C2)C3)cc1 [Compound 28A] | 0.25 (≈ 0.564 µM)
36 | N#Cc1ccc(C23CC(C(F)(F)C(O)(Cn4cnnn4)c4cc(F)ccc4F)(C2)C3)cc1 (stereo not shown) [Compound 28] | 0.016 (≈ 0.0361 µM)
37 | N#Cc1ccc(C23CC(C(F)(F)[C@@](O)(Cn4cncn4)c4cc(F)ccc4F)(C2)C3)cc1 [Compound 29B] | 0.125 (≈ 0.283 µM)
38 | N#Cc1cccc(C23CC(C(F)(F)C(O)(Cn4cnnn4)c4ccc(F)cc4F)(C2)C3)c1 (stereo not shown) [Compound 30] | 0.06 (≈ 0.135 µM)
39 | OC(Cn1cnnn1)(c1ccc(F)cc1F)C(F)(F)C12CC(c3cccc(OCC(F)(F)F)c3)(C1)C2 (stereo not shown) [Compound 31] | 0.125 (≈ 0.242 µM)
40 | O[C@](Cn1cnnn1)(c1ccc(F)cc1F)C(F)(F)C12CC(c3ccc(Cl)cc3)(C1)C2 [Compound 32B] | 0.06 (≈ 0.132 µM)
41 | OC(Cn1cnnn1)(c1ccc(F)cc1F)C(F)(F)C12CC(c3ccc(Cl)cc3)(C1)C2 (stereo not shown) [Compound 32] | 0.016 (≈ 0.0353 µM)
42 | OC(Cn1cnnn1)(c1ccc(F)cc1F)C(F)(F)C12CC(c3ccc4c(c3)OCO4)(C1)C2 (stereo not shown) [Compound 33] | 0.06 (≈ 0.13 µM)
43 | CNC(=O)COc1ccc(C23CC(C(F)(F)C(O)(Cn4cnnn4)c4ccc(F)cc4F)(C2)C3)cc1 (stereo not shown) [Compound 34] | 0.016 (≈ 0.0317 µM)
44 | CN1CCC(O)(COc2ccc(C34CC(C(F)(F)C(O)(Cn5cnnn5)c5ccc(F)cc5F)(C3)C4)cc2)CC1 (stereo not shown) [Compound 38] | 0.5 (≈ 0.89 µM)
45 | OC1CC(Oc2ccc(C34CC(C(F)(F)C(O)(Cn5cnnn5)c5ccc(F)cc5F)(C3)C4)cc2)C1 (stereo not shown) [Compound 39] | 0.0078 (≈ 0.0155 µM)
46 | CN1CC[C@@H](Oc2ccc(C34CC(C(F)(F)C(O)(Cn5cnnn5)c5ccc(F)cc5F)(C3)C4)cc2)C1 (stereo partly shown) [Compound 42] | 0.06 (≈ 0.116 µM)
47 | CN1CC[C@H](Oc2ccc(C34CC(C(F)(F)C(O)(Cn5cnnn5)c5ccc(F)cc5F)(C3)C4)cc2)C1 (stereo partly shown) [Compound 43] | 0.03 (≈ 0.058 µM)

Same assay, conditions: lowest concentration inhibiting growth of yeast by 50%; 35° C., 24 hours; RPMI1640

Row | SMILES | MIC Candida albicans ATCC MYA-2876 [µg/mL]
48 | Oc1ccc(C23CC(C(F)(F)[C@](O)(Cn4cnnn4)c4ccc(F)cc4F)(C2)C3)cc1 (single isomer, unassigned) [Compound 20A] | 0.06 (≈ 0.138 µM)
49 | O[C@@](Cn1cnnn1)(c1ccc(F)cc1F)C(F)(F)C12CC(C1)C2 [Compound 6A] | 0.06 (≈ 0.175 µM)
50 | O[C@@](Cn1cnnn1)(c1ccc(Cl)cc1F)C(F)(F)C12CC(c3ccc(OCC(F)(F)F)cc3)(C1)C2 [Compound 7A] | 0.0078 (≈ 0.0146 µM)
51 | N#Cc1ccc(C23CC(C(F)(F)[C@@](O)(Cn4cnnn4)c4ccc(F)cc4F)(C2)C3)cc1 [Compound 8A] | 0.0078 (≈ 0.0176 µM)
52 | O[C@](Cn1cnnn1)(c1cc(F)ccc1F)C(F)(F)C12CC(c3ccc(OCC(F)(F)F)cc3)(C1)C2 [Compound 9A] | 0.06 (≈ 0.116 µM)
53 | CC12CC(C(F)(F)[C@](O)(Cn3cnnn3)c3ccc(F)cc3F)(C1)C2 [Compound 14A] | 0.016 (≈ 0.0449 µM)
54 | O[C@@](Cn1cnnn1)(c1ccc(F)cc1F)C(F)(F)C12CC(c3ccc(Cl)cc3)(C1)C2 [Compound 32A] | ≤0.0039
55 | CNC(=O)COc1ccc(C23CC(C(F)(F)[C@](O)(Cn4cnnn4)c4ccc(F)cc4F)(C2)C3)cc1 [Compound 34A] | 0.0078 (≈ 0.0154 µM)
